One data set concerns hNav1.4. To be noted: heterologously expressed; cited from earlier work.
The test system of a further data set is hNav1.7. To be noted: heterologously expressed; cited from earlier work.
A further data set has as its system pain threshold. To be noted: rat, oxaliplatin-induced neuropathic pain; cited from earlier work.
Data set [1] deals with skeletal muscle sodium channels (native Nav1.4). As to the kind of experiment: Tonic and use-dependent block of sodium currents. It counts as cell-based, Rana Esculenta. To be noted: for eudismic ratio [IC50 distomer/IC50 eutomer]: 10 Hz use-dependent block.
For data set [2] the test system is unchanged. To be noted: use-dependent block at 10 Hz frequency; cited from earlier work.
The test system of the next data set is human serum albumin. The settings on record: cited from earlier work.

Read-outs that look alike come from different tables or passages of the source.

`Cc1cccc(C)c1NC(=O)C1CCN(Cc2ccccc2)C1` (racemic) [To10, 1-benzyl-N-(2,6-dimethylphenyl)pyrrolidine-3-carboxamide]: in the data set with hNav1.4, the “use-dependent block of hNav1.4” value is “potent use-dependent blocker”. The “use-dependent block of hNav1.7” value in the data set with hNav1.7 is “potent use-dependent blocker”. For the same compound, the “reverting the reduction of the pain threshold” value with pain threshold is given as “more potent than tocainide”. Further, the “eudismic ratio [IC50 distomer/IC50 eutomer]” value (shortened to “eudismic ratio”) in data set [1] came out at 1.3. With `Cc1cccc(C)c1NC(=O)C1CCCN1Cc1ccccc1` (racemic) [To11, 1-benzyl-N-(2,6-dimethylphenyl)pyrrolidine-2-carboxamide], in data set [1], the “eudismic ratio” value is recorded as “greater than 3”. For `Cc1cccc(C)c1NC(=O)C1CCCN1` (stereo not drawn) [To5, N-(2,6-dimethylphenyl)pyrrolidine-2-carboxamide], in data set [2], the “eudismic ratio” value is reported as over 3.

With `O=C(Nc1ccccc1)C1CCN(Cc2ccccc2)C1` (stereo not drawn) [To13, 1-benzyl-N-phenylpyrrolidine-3-carboxamide], the “fold less potent than To10 during use-dependent blockade” value in data set [1] was 4–5 fold. `O=C(Nc1ccc(Cl)cc1)C1CCN(Cc2ccccc2)C1` (stereo not drawn) [To14, 1-benzyl-N-(4-chlorophenyl)pyrrolidine-3-carboxamide]: in data set [1], the “fold less potent than To10 during use-dependent blockade” value is listed as 4–5 fold. For the compound `Cc1cc(C)c(C)c(NC(=O)C2CCN(Cc3ccccc3)C2)c1C` (stereo not drawn) [To15, 1-benzyl-N-(2,3,5,6-tetramethylphenyl)pyrrolidine-3-carboxamide], the “binding activity to human serum albumin” value in the data set with human serum albumin is “high binding activity”.

`Cc1cccc(C)c1NC(=O)C1CN(Cc2ccccc2)CCN1` (stereo not drawn) [To32, 4-benzyl-N-(2,6-dimethylphenyl)piperazine-2-carboxamide]: in data set [1] (tonic block vs use-dependent block), the “ratio IC50TB/IC50 UDB” value was “around 12”. `Cc1cccc(C)c1NC(=O)C1CCCCN1Cc1ccccc1` (stereo not drawn) [To35, 1-benzyl-N-(2,6-dimethylphenyl)piperidine-2-carboxamide]: the “fold less potent than To31 in tonic block” value in data set [1] (tonic block) stood at 4 fold. For the same compound, the “fold less potent than To31 in use-dependent block” value in data set [1] (use-dependent block) came out at 8 fold.

The record behind these values is publication PMC3314985 (Neuromuscular Disorders, 2012).
